This note sets out measurements from patent publication US20260191968A1, “PROTAC DEGRADERS OF MLLT1 AND/OR MLLT3” (DARK BLUE THERAPEUTICS LTD, priority 2024, published 2026).

This assay has as its target T1, MLLT1 (Homo sapiens, UniProt Q03111).
T1 construct: host or cells: MV4-11
T1 sequence (Q03111 1-559): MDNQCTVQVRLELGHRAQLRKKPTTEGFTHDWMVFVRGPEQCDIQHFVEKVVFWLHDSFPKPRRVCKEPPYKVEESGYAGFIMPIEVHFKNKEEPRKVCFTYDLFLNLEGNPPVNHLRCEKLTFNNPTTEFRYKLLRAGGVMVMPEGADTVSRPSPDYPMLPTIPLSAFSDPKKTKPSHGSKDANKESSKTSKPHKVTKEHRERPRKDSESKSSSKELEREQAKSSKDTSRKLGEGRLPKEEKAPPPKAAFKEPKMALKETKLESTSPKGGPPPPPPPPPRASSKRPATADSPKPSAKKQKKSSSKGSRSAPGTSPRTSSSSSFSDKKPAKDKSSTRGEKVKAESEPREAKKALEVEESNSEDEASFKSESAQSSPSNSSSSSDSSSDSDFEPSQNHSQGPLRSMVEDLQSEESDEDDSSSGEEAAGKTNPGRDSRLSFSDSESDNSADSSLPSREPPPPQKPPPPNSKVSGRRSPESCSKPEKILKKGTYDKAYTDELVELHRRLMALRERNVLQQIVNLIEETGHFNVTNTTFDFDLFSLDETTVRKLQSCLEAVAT
Briefly: MLLT1 degradation assay in MV4-11 cells (JESS chemiluminescent detection), three concentrations, 24 h. It is filed as cell-based. Conditions: with respect to DMSO control. In short, it runs like this: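 MV4-11 cells treated 24 h at 37° C, 5% CO2 with 1000, 100 and 10 nM compound (0.1% DMSO final). MLLT1 quantified by automated capillary chemiluminescent immunodetection; band peak area expressed as % degradation relative to DMSO control.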

The structures appear in SMILES notation.

For the compound `CN1CCC[C@@H]1c1cc2cnc(NC(=O)c3ccc(OCCC4CCN(c5cccc6c5C(=O)N(C5CCC(=O)NC5=O)C6=O)CC4)cc3F)cc2[nH]1` (stereo partly drawn) [Example 217, 4-(2-(1-(2-(2,6-dioxopiperidin-3-yl)-1,3-dioxoisoindolin-4-yl)piperidin-4-yl)ethoxy)-2-fluoro-N-(2-((R)-1-methylpyrrolidin-2-yl)-1H-pyrrolo[3,2-c]pyridin-6-yl)benzamide], the “MLLT1% Degradation @ 0.01 μM” value is given as “C (Category C: 25% ≤ C < 50% degradation)”, the “MLLT1% Degradation @ 0.1 μM” value is reported as “A (Category A: A ≥ 75% degradation)” and the “MLLT1% Degradation @ 1 μM” value was “A (Category A: A ≥ 75% degradation)”.
`CN1CCC[C@@H]1c1cc2cnc(NC(=O)c3ccc(N4CC(CN5CCN(c6ccc7c(c6)C(=O)N(C6CCC(=O)NC6=O)C7=O)CC5)C4)cc3)cc2[nH]1` (stereo partly drawn) [Example 183, 4-(3-((4-(2-(2,6-dioxopiperidin-3-yl)-1,3-dioxoisoindolin-5-yl)piperazin-1-yl)methyl)azetidin-1-yl)-N-(2-((R)-1-methylpyrrolidin-2-yl)-1H-pyrrolo[3,2-c]pyridin-6-yl)benzamide]: the “MLLT1% Degradation @ 0.01 μM” value is given as “C (Category C: 25% ≤ C < 50% degradation)”, the “MLLT1% Degradation @ 0.1 μM” value is reported as “B (Category B: 50% ≤ B < 75% degradation)” and the “MLLT1% Degradation @ 1 μM” value is on record as “B (Category B: 50% ≤ B < 75% degradation)”.
Turning to `CN1CCC[C@@H]1c1cc2cnc(NC(=O)c3ccc(N4CCC5(CC4)CCN(c4cccc6c4CN(C4CCC(=O)NC4=O)C6=O)CC5)cc3F)cc2[nH]1` (stereo partly drawn) [Example 202, 4-(9-(2-(2,6-dioxopiperidin-3-yl)-1-oxoisoindolin-4-yl)-3,9-diazaspiro[5.5]undecan-3-yl)-2-fluoro-N-(2-((R)-1-methylpyrrolidin-2-yl)-1H-pyrrolo[3,2-c]pyridin-6-yl)benzamide], the “MLLT1% Degradation @ 0.01 μM” value was “D (Category D: D < 25% degradation)”, the “MLLT1% Degradation @ 0.1 μM” value is given as “C (Category C: 25% ≤ C < 50% degradation)” and the “MLLT1% Degradation @ 1 μM” value is listed as “C (Category C: 25% ≤ C < 50% degradation)”.
Turning to `CN1CCC[C@@H]1c1cc2cnc(NC(=O)c3ccc(N4CCN(CC5CCN(c6ccc7c(c6)CN(C6CCC(=O)NC6=O)C7=O)CC5)CC4)cc3)cc2[nH]1` (stereo partly drawn) [Example 222, 4-(4-((1-(2-(2,6-dioxopiperidin-3-yl)-1-oxoisoindolin-5-yl)piperidin-4-yl)methyl)piperazin-1-yl)-N-(2-((R)-1-methylpyrrolidin-2-yl)-1H-pyrrolo[3,2-c]pyridin-6-yl)benzamide], the “MLLT1% Degradation @ 0.01 μM” value is “C (Category C: 25% ≤ C < 50% degradation)”, the “MLLT1% Degradation @ 0.1 μM” value is “B (Category B: 50% ≤ B < 75% degradation)” and the “MLLT1% Degradation @ 1 μM” value is recorded as “B (Category B: 50% ≤ B < 75% degradation)”.
Turning to `Cc1cc(OC2CCN(c3ccc(C(=O)Nc4cc5[nH]c([C@H]6CCCN6C)cc5cn4)cn3)CC2)ccc1-c1cccc2c1CN(C1CCC(=O)NC1=O)C2=O` (stereo partly drawn) [Example 196, 6-(4-(4-(2-(2,6-dioxopiperidin-3-yl)-1-oxoisoindolin-4-yl)-3-methylphenoxy)piperidin-1-yl)-N-(2-((R)-1-methylpyrrolidin-2-yl)-1H-pyrrolo[3,2-c]pyridin-6-yl)nicotinamide], the “MLLT1% Degradation @ 0.01 μM” value is given as “D (Category D: D < 25% degradation)”, the “MLLT1% Degradation @ 0.1 μM” value is “B (Category B: 50% ≤ B < 75% degradation)” and the “MLLT1% Degradation @ 1 μM” value is given as “A (Category A: A ≥ 75% degradation)”.
Consider `CN1CCC[C@@H]1c1cc2cnc(NC(=O)c3ccc(N4CCC(N5CCN(c6cccc7c6C(=O)N(C6CCC(=O)NC6=O)C7=O)CC5)CC4)nc3)cc2[nH]1` (stereo partly drawn) [Example 64, 6-(4-(4-(2-(2,6-dioxopiperidin-3-yl)-1,3-dioxoisoindolin-4-yl)piperazin-1-yl)piperidin-1-yl)-N-(2-((R)-1-methylpyrrolidin-2-yl)-1H-pyrrolo[3,2-c]pyridin-6-yl)nicotinamide], for which the “MLLT1% Degradation @ 0.01 μM” value was “B (Category B: 50% ≤ B < 75% degradation)”, the “MLLT1% Degradation @ 0.1 μM” value is “B (Category B: 50% ≤ B < 75% degradation)” and the “MLLT1% Degradation @ 1 μM” value is listed as “A (Category A: A ≥ 75% degradation)”.
Consider `CN1CCC[C@@H]1c1cc2cnc(NC(=O)c3ccc(CCCC#Cc4cccc(N5CCC(=O)NC5=O)n4)cc3)cc2[nH]1` [Example 63, (R)-4-(5-(6-(2,4-dioxotetrahydropyrimidin-1(2H)-yl)pyridin-2-yl)pent-4-yn-1-yl)-N-(2-(1-methylpyrrolidin-2-yl)-1H-pyrrolo[3,2-c]pyridin-6-yl)benzamide], for which the “MLLT1% Degradation @ 0.01 μM” value was “D (Category D: D < 25% degradation)”, the “MLLT1% Degradation @ 0.1 μM” value is “D (Category D: D < 25% degradation)” and the “MLLT1% Degradation @ 1 μM” value is recorded as “C (Category C: 25% ≤ C < 50% degradation)”.
With `C[C@H]1CN(CC2CCN(c3cccc4c3CN(C3CCC(=O)NC3=O)C4=O)CC2)CCN1c1ccc(C(=O)Nc2cc3[nH]c([C@H]4CCCN4C)cc3cn2)cn1` (stereo partly drawn) [Example 127, 6-((2S)-4-((1-(2-(2,6-dioxopiperidin-3-yl)-1-oxoisoindolin-4-yl)piperidin-4-yl)methyl)-2-methylpiperazin-1-yl)-N-(2-((R)-1-methylpyrrolidin-2-yl)-1H-pyrrolo[3,2-c]pyridin-6-yl)nicotinamide], the “MLLT1% Degradation @ 0.01 μM” value is “B (Category B: 50% ≤ B < 75% degradation)”, the “MLLT1% Degradation @ 0.1 μM” value is “B (Category B: 50% ≤ B < 75% degradation)” and the “MLLT1% Degradation @ 1 μM” value was “B (Category B: 50% ≤ B < 75% degradation)”.
Regarding `CN1CCC[C@@H]1c1cc2cnc(NC(=O)c3ccc(N4CCN(CC5CCN(c6cccc(C(=O)N[C@H]7CCC(=O)NC7=O)n6)CC5)CC4)cc3)cc2[nH]1` [Example 182, N—((S)-2,6-dioxopiperidin-3-yl)-6-(4-((4-(4-((2-((R)-1-methylpyrrolidin-2-yl)-1H-pyrrolo[3,2-c]pyridin-6-yl)carbamoyl)phenyl)piperazin-1-yl)methyl)piperidin-1-yl)picolinamide], the “MLLT1% Degradation @ 0.01 μM” value is “C (Category C: 25% ≤ C < 50% degradation)”, the “MLLT1% Degradation @ 0.1 μM” value is “B (Category B: 50% ≤ B < 75% degradation)” and the “MLLT1% Degradation @ 1 μM” value was “B (Category B: 50% ≤ B < 75% degradation)”.
For the compound `CN1CCC[C@@H]1c1cc2cnc(NC(=O)c3ccc(CCCC#Cc4cccc(C(=O)N[C@H]5CCC(=O)NC5=O)c4F)cc3)cc2[nH]1` [Example 219, N—((S)-2,6-dioxopiperidin-3-yl)-2-fluoro-3-(5-(4-((2-((R)-1-methylpyrrolidin-2-yl)-1H-pyrrolo[3,2-c]pyridin-6-yl)carbamoyl)phenyl)pent-1-yn-1-yl)benzamide], the “MLLT1% Degradation @ 0.01 μM” value is “A (Category A: A ≥ 75% degradation)”, the “MLLT1% Degradation @ 0.1 μM” value is “A (Category A: A ≥ 75% degradation)” and the “MLLT1% Degradation @ 1 μM” value is given as “B (Category B: 50% ≤ B < 75% degradation)”.
`CN1CCC[C@@H]1c1cc2cnc(NC(=O)N3CCC(CCC#Cc4cccc5c4CN(C4CCC(=O)NC4=O)C5=O)CC3)cc2[nH]1` (stereo partly drawn) [Example 1, 4-(4-(2-(2,6-dioxopiperidin-3-yl)-1-oxoisoindolin-4-yl)but-3-yn-1-yl)-N-(2-((R)-1-methylpyrrolidin-2-yl)-1H-pyrrolo[3,2-c]pyridin-6-yl)piperidine-1-carboxamide]: the “MLLT1% Degradation @ 0.01 μM” value is listed as “C (Category C: 25% ≤ C < 50% degradation)”, the “MLLT1% Degradation @ 0.1 μM” value is recorded as “C (Category C: 25% ≤ C < 50% degradation)” and the “MLLT1% Degradation @ 1 μM” value was “C (Category C: 25% ≤ C < 50% degradation)”.
For `CN1CCC[C@@H]1c1cc2cnc(NC(=O)c3cnn(CCCC4CCN(c5cccc6c5C(=O)N(C5CCC(=O)NC5=O)C6=O)CC4)c3)cc2[nH]1` (stereo partly drawn) [Example 38, 1-(3-{1-[2-(2,6-dioxopiperidin-3-yl)-1,3-dioxoisoindol-4-yl]piperidin-4-yl}propyl)-N-{2-[(2R)-1-methylpyrrolidin-2-yl]-1H-pyrrolo[3,2-c]pyridin-6-yl}pyrazole-4-carboxamide], the “MLLT1% Degradation @ 0.01 μM” value is given as “D (Category D: D < 25% degradation)”, the “MLLT1% Degradation @ 0.1 μM” value is “D (Category D: D < 25% degradation)” and the “MLLT1% Degradation @ 1 μM” value is listed as “C (Category C: 25% ≤ C < 50% degradation)”.
On to `CCN1CCC[C@@H]1c1cc2cnc(NC(=O)c3ccc(N4CCC(CC#Cc5cccc6c5CN(C5CCC(=O)NC5=O)C6=O)CC4)nc3)cc2[nH]1` (stereo partly drawn) [Example 73, 6-(4-(3-(2-(2,6-dioxopiperidin-3-yl)-1-oxoisoindolin-4-yl)prop-2-yn-1-yl)piperidin-1-yl)-N-(2-((R)-1-ethylpyrrolidin-2-yl)-1H-pyrrolo[3,2-c]pyridin-6-yl)nicotinamide], for which the “MLLT1% Degradation @ 0.01 μM” value was “B (Category B: 50% ≤ B < 75% degradation)”, the “MLLT1% Degradation @ 0.1 μM” value is given as “A (Category A: A ≥ 75% degradation)” and the “MLLT1% Degradation @ 1 μM” value is recorded as “B (Category B: 50% ≤ B < 75% degradation)”.
